According to paper PMC12777510 (Chempluschem, 2025):
Values after ≈ are worked out from the molar mass of the structure shown. *1 amine or outer side, *2 acyl side, *3 side chain or, on linkers, in order; H or OH if unused. Where a SMILES comes first, the peptide text is derived from it. [ ]: non-standard residue; d: D form. X1 = O=C(C[C@@H](CCCCCCCCCCC(F)(F)F)N[*:1])[*:2]

Details: 19F NMR samples in D2O containing Saboraud Dextrose Broth (30 g/L), 5% d6-DMSO added to avoid precipitation

NC(=O)CC[C@@H]1NC(=O)[C@@H](CC(N)=O)NC(=O)[C@@H](Cc2ccc(O)cc2)NC(=O)[C@H](CC(N)=O)NC(=O)C[C@@H](CCCCCCCCCCC(F)(F)F)NC(=O)[C@H](CO)NC(=O)[C@@H](CC(N)=O)NC(=O)[C@@H]2CCCN2C1=O [Compound 9, ω‐CF3 iturin A2] (cyclo(N[dY][dN]QP[dN]S[X1]))
aqueous solubility: 100 µM (≈ 110 µg/mL)
